Measurements as given in ChEMBL document CHEMBL4257591 (J Med Chem, 2018).
In brackets after ≈: the same amount, converted by molar mass. Activity calls are given as the source filed them. The rule behind the calls is not given here. Starred links: 1 amine or outer side, 2 acyl side, 3 side chain; linkers in the order of their positions; H or OH if unused. Positions of bridges follow the written chain, without caps; N, C: chain ends. Non-standard residues stand in square brackets, D forms with d. Residues, ends and D or L forms follow the SMILES beside them. X1 = NC(=O)C[C@@H](C(=O)[*:2])N(c1ccc2c(c1)C(=O)OC21c2ccc(O)cc2Oc2cc(O)ccc21)[*:1]

Columns and labels:
Staphylococcus aureus [1] = test: Antimicrobial activity against methicillin-resistant Staphylococcus aureus CCARM 3095 after 18 hrs; format: functional; details: CCARM 3095, 18 h
Staphylococcus aureus [2] = test: Antimicrobial activity against methicillin-resistant Staphylococcus aureus CCARM 3089 after 18 hrs; format: functional; details: CCARM 3089, 18 h
Salmonella typhimurium = test: Antimicrobial activity against Salmonella typhimurium KCTC 1926 after 18 hrs; format: functional, Salmonella enterica subsp. enterica serovar Typhimurium; details: Salmonella enterica, KCTC 1926, 18 h
Escherichia coli [3] = test: Antimicrobial activity against Escherichia coli KCTC 1682 after 18 hrs; format: functional; details: KCTC 1682, 18 h
Pseudomonas aeruginosa [4] = test: Antimicrobial activity against multidrug-resistant Pseudomonas aeruginosa CCARM 2095 after 18 hrs; format: functional; details: CCARM 2095, 18 h
[5] = system: Staphylococcus epidermidis; test: Antimicrobial activity against Staphylococcus epidermidis KCTC 1617 after 18 hrs; format: functional; details: KCTC 1617, 18 h
Staphylococcus aureus [6] = test: Induction of membrane permeabilization in Staphylococcus aureus KCTC 1621 at 2 to 8 times MIC concentration up to 300 secs by SYTOX green uptake assay; format: functional, organism-based
Pseudomonas aeruginosa [7] = test: Antimicrobial activity against Pseudomonas aeruginosa KCTC 1637 after 18 hrs; format: functional; details: KCTC 1637, 18 h
Enterococcus faecium = test: Antimicrobial activity against vancomycin-resistant Enterococcus faecium ATCC 51559 after 18 hrs; format: functional; details: ATCC 51559, 18 h
Staphylococcus aureus [8] = test: Antimicrobial activity against methicillin-resistant Staphylococcus aureus CCARM 3090 after 18 hrs; format: functional; details: CCARM 3090, 18 h
Staphylococcus aureus [9] = test: Induction of cytoplasmic membrane depolarization in Staphylococcus aureus KCTC 1621 at 2 to 8 times MIC concentration by DiSC3(5)-dye based fluorescence spectrophotometry; format: functional, organism-based
Staphylococcus aureus [10] = test: Antimicrobial activity against Staphylococcus aureus KCTC 1621 after 18 hrs; format: functional; details: KCTC 1621, 18 h
Bacillus subtilis = test: Antimicrobial activity against Bacillus subtilis KCTC 3068 after 18 hrs; format: functional; details: KCTC 3068, 18 h
DNA [11] = test: Binding affinity to Escherichia coli pBR322 DNA assessed as inhibition of DNA migration at 32 uM after 1 hr by agarose gel electrophoresis and UV spectroscopy; format: nucleic-acid assay
Staphylococcus aureus [12] = test: Bactericidal activity against Staphylococcus aureus KCTC 1621 at MIC concentration after 30 mins by time kill assay; format: functional, organism-based
Escherichia coli [13] = test: Bactericidal activity against Escherichia coli KCTC 1682 at MIC concentration after 120 to 180 mins by time kill assay; format: functional, organism-based
Escherichia coli [14] = test: Induction of membrane permeabilization in Escherichia coli KCTC 1682 assessed as PI-positive cells at 25 uM after 1 to 2 hrs by propidium iodide-staining based flow cytometry (reference value: 2.36%); format: functional
RAW264.7 = test: Cytotoxicity against mouse RAW264.7 cells at 512 uM after 48 hrs by MTT assay; format: cell-based; details: raw264.7, 48 h
[15] = Hemolytic activity in sheep RBC assessed as free hemoglobin level up to 256 uM by ELISA relative to control; format: ADME, cell-based, Ovis aries, Erythrocyte; details: sheep red blood cells (erythrocytes), read-out: Activity
Escherichia coli [16] = test: Induction of membrane permeabilization in Escherichia coli KCTC 1682 assessed as PI-positive cells at 12.5 uM after 1 to 2 hrs by propidium iodide-staining based flow cytometry (reference value: 2.36%); format: functional
DNA [17] = test: Binding affinity to Escherichia coli pBR322 DNA assessed as inhibition of DNA migration at 16 uM after 1 hr by agarose gel electrophoresis and UV spectroscopy; format: nucleic-acid assay
[18] = Drug uptake in Staphylococcus aureus KCTC 1621 cytoplasm at 30 uM after 20 mins using FITC-labeled compound by confocal laser-scanning microscopy; format: ADME
Escherichia coli [19] = test: Antimicrobial activity against Escherichia coli KCTC 1682 after 18 hrs using FITC-labelled compound; format: functional
Staphylococcus aureus [20] = test: Antimicrobial activity against Staphylococcus aureus KCTC 1621 after 18 hrs using FITC-labelled compound; format: functional
Staphylococcus aureus [21] = test: Drug penetration in Staphylococcus aureus KCTC 1621 at MIC concentration after 20 mins using FITC-labelled compounds by confocal laser-scanning microscopy; format: ADME, organism-based; details: in vivo
[22] = Drug uptake in Escherichia coli KCTC 1682 cytoplasm at 30 uM after 20 mins using FITC-labeled compound by confocal laser-scanning microscopy; format: ADME
Escherichia coli [23] = test: Drug penetration in Escherichia coli KCTC 1682 at MIC concentration after 20 mins using FITC-labelled compounds by confocal laser-scanning microscopy; format: ADME, organism-based; details: in vivo

Row | SMILES | MIC (Staphylococcus aureus [1]) [µM] | MIC (Staphylococcus aureus [2]) [µM] | MIC (Salmonella typhimurium) [µM] | MIC (Escherichia coli [3]) [µM] | MIC (Pseudomonas aeruginosa [4]) [µM] | MIC [5] [µM] | Activity (Staphylococcus aureus [6]) | MIC (Pseudomonas aeruginosa [7]) [µM] | MIC (Enterococcus faecium) [µM] | MIC (Staphylococcus aureus [8]) [µM] | Activity (Staphylococcus aureus [9]) | MIC (Staphylococcus aureus [10]) [µM] | MIC (Bacillus subtilis) [µM] | Activity (Staphylococcus aureus [12]) | Activity (Escherichia coli [13]) | Activity (RAW264.7) | hemolysis [15] [%] | also measured
1 | CC[C@H](C)[C@H](NC(=O)[C@@H](NC(=O)[C@H](Cc1cnc[nH]1)NC(=O)[C@H](CCCNC(=N)N)NC(=O)[C@H](C)NC(=O)[C@H](CCCNC(=N)N)NC(=O)[C@H](CC(C)C)NC(=O)[C@H](CO)NC(=O)[C@H](C)NC(=O)[C@H](CS)NC(=O)[C@H](CC(C)C)NC(=O)[C@@H](N)CC(N)=O)[C@@H](C)O)C(=O)N1CCC[C@H]1C(=O)N[C@@H](CCC(N)=O)C(=O)N[C@@H](CS)C(=O)N[C@@H](CCCNC(=N)N)C(=O)N[C@@H](CCCCN)C(=O)N[C@@H](Cc1ccccc1)C(=O)NCC(=O)N[C@@H](CCCNC(=N)N)C(=O)N[C@@H](CCCNC(=N)N)C(N)=O (H-NLCASLRARHTIPQCRKFGRR-NH2) | 12.5 (≈ 31 µg/mL) | 12.5 (≈ 31 µg/mL) | 12.5 (≈ 31 µg/mL) | 12.5 (≈ 31 µg/mL) | 50 (≈ 124 µg/mL) | 12.5 (≈ 31 µg/mL) | inactive | 12.5 (≈ 31 µg/mL) | 25 (≈ 62.1 µg/mL) | 25 (≈ 62.1 µg/mL) | inactive | 12.5 (≈ 31 µg/mL) | 12.5 (≈ 31 µg/mL) |  |  |  |  | 
2 | CC[C@H](C)[C@@H]1NC(=O)[C@H]([C@@H](C)O)NC(=O)[C@H](Cc2cnc[nH]2)NC(=O)[C@H](CCCNC(=N)N)NC(=O)[C@H](C)NC(=O)[C@H](CCCNC(=N)N)NC(=O)[C@H](CC(C)C)NC(=O)[C@H](CO)NC(=O)[C@H](C)NC(=O)[C@@H](NC(=O)[C@H](CC(C)C)NC(=O)[C@@H](N)CC(N)=O)CSSC[C@@H](C(=O)N[C@@H](CCCNC(=N)N)C(=O)N[C@@H](CCCCN)C(=O)N[C@@H](Cc2ccccc2)C(=O)NCC(=O)N[C@@H](CCCNC(=N)N)C(=O)N[C@@H](CCCNC(=N)N)C(N)=O)NC(=O)[C@H](CCC(N)=O)NC(=O)[C@@H]2CCCN2C1=O (H-NLCASLRARHTIPQCRKFGRR-NH2; disulfide 3-15) | 12.5 (≈ 31 µg/mL) | 12.5 (≈ 31 µg/mL) | 12.5 (≈ 31 µg/mL) | 12.5 (≈ 31 µg/mL) | 50 (≈ 124 µg/mL) | 12.5 (≈ 31 µg/mL) | inactive | 12.5 (≈ 31 µg/mL) | 25 (≈ 62 µg/mL) | 25 (≈ 62 µg/mL) | inactive | 12.5 (≈ 31 µg/mL) | 12.5 (≈ 31 µg/mL) | Active | Active | Non-Toxic | < 1 | Activity (DNA [11]): Active; Activity (Escherichia coli [14]): 6.39%
3 | CC[C@H](C)[C@H](NC(=O)[C@@H](NC(=O)[C@H](Cc1cnc[nH]1)NC(=O)[C@H](CCCNC(=N)N)NC(=O)[C@H](C)NC(=O)[C@H](CCCNC(=N)N)NC(=O)[C@H](CC(C)C)NC(=O)[C@H](CO)NC(=O)[C@H](C)NC(=O)[C@H](CO)NC(=O)[C@H](CC(C)C)NC(=O)[C@@H](N)CC(N)=O)[C@@H](C)O)C(=O)N1CCC[C@H]1C(=O)N[C@@H](CCC(N)=O)C(=O)N[C@@H](CO)C(=O)N[C@@H](CCCNC(=N)N)C(=O)N[C@@H](CCCCN)C(=O)N[C@@H](Cc1ccccc1)C(=O)NCC(=O)N[C@@H](CCCNC(=N)N)C(=O)N[C@@H](CCCNC(=N)N)C(N)=O (H-NLSASLRARHTIPQSRKFGRR-NH2) | 25 (≈ 61.3 µg/mL) | 25 (≈ 61.3 µg/mL) | 6.3 (≈ 15.4 µg/mL) | 6.3 (≈ 15.4 µg/mL) | 12.5 (≈ 30.6 µg/mL) | 6.3 (≈ 15.4 µg/mL) | inactive | 6.3 (≈ 15.4 µg/mL) | 50 (≈ 123 µg/mL) | 50 (≈ 123 µg/mL) | inactive | 12.5 (≈ 30.6 µg/mL) | 12.5 (≈ 30.6 µg/mL) | Active | Active | Non-Toxic | < 1 | Activity (Escherichia coli [16]): 3.66%; Activity (DNA [17]): Active
4 | CC[C@H](C)[C@H](NC(=O)[C@@H](NC(=O)[C@H](Cc1cnc[nH]1)NC(=O)[C@H](CCCNC(=N)N)NC(=O)[C@H](C)NC(=O)[C@H](CCCNC(=N)N)NC(=O)[C@H](CC(C)C)NC(=O)[C@H](CO)NC(=O)[C@H](C)NC(=O)[C@H](CO)NC(=O)[C@H](CC(C)C)NC(=O)[C@H](CC(N)=O)Nc1ccc2c(c1)C(=O)OC21c2ccc(O)cc2Oc2cc(O)ccc21)[C@@H](C)O)C(=O)N1CCC[C@H]1C(=O)N[C@@H](CCC(N)=O)C(=O)N[C@@H](CO)C(=O)N[C@@H](CCCNC(=N)N)C(=O)N[C@@H](CCCCN)C(=O)N[C@@H](Cc1ccccc1)C(=O)NCC(=O)N[C@@H](CCCNC(=N)N)C(=O)N[C@@H](CCCNC(=N)N)C(N)=O (H-[X1]LSASLRARHTIPQSRKFGRR-NH2) |  |  |  |  |  |  |  |  |  |  |  |  |  |  |  |  |  | Drug uptake [18]: Active; Activity (Escherichia coli [19]): Active; Activity (Staphylococcus aureus [20]): Active; Drug uptake (Staphylococcus aureus [21]): Active; Drug uptake [22]: Active; Drug uptake (Escherichia coli [23]): Active
